From the OligoGym collection
HELM strings list units from the 5' end as sugar, base in round brackets, then linkage (d deoxyribose, r ribose, m 2'-O-methyl, p phosphodiester). [sp] = phosphorothioate linkage

What was measured:
CDKN2B-AS1 [1] = assay: HEK293-TLR7, 100 nM ASO, then resiquimod
CDKN2B-AS1 [2] = assay: HEK293-TLR8, 100 nM ASO, then resiquimod

**Q.** With “RNA1{m(A)[sp].m(A)[sp].m(A)[sp].m(A)[sp].m(G)[sp].d(A)[sp].d(T)[sp].d(T)[sp].d(A)[sp].d(T)[sp].d(C)[sp].d(T)[sp].d(T)[sp].d(C)[sp].d(T)[sp].m(U)[sp].m(U)[sp].m(U)[sp].m(A)[sp].m(A)}$$$$” as the substance, how does the TLR7 signal (NF-kB luciferase) (% of resiquimod alone) (CDKN2B-AS1 [1]) read?
**A.** Its TLR7 signal (NF-kB luciferase) (% of resiquimod alone) is 47.4.

**Q.** What about the TLR8 potentiation (NF-kB luciferase) (fold of resiquimod alone) (CDKN2B-AS1 [2]) of the same substance?
**A.** The TLR8 potentiation (NF-kB luciferase) (fold of resiquimod alone) was 3.19.

**Q.** “RNA1{m(A)[sp].m(A)[sp].m(A)[sp].m(A)[sp].m(U)[sp].d(A)[sp].d(A)[sp].d(G)[sp].d(G)[sp].d(G)[sp].d(G)[sp].d(A)[sp].d(A)[sp].d(T)[sp].d(A)[sp].m(G)[sp].m(G)[sp].m(G)[sp].m(G)[sp].m(A)}$$$$” was tested. Which TLR7 signal (NF-kB luciferase) (% of resiquimod alone) (CDKN2B-AS1 [1]) did it give?
**A.** Its TLR7 signal (NF-kB luciferase) (% of resiquimod alone) is 68.5.

**Q.** And the TLR8 potentiation (NF-kB luciferase) (fold of resiquimod alone) (CDKN2B-AS1 [2])?
**A.** Its TLR8 potentiation (NF-kB luciferase) (fold of resiquimod alone) is 0.86.

**Q.** How did the TLR7 signal (NF-kB luciferase) (% of resiquimod alone) (CDKN2B-AS1 [1]) turn out when “RNA1{m(A)[sp].m(A)[sp].m(A)[sp].m(G)[sp].m(A)[sp].d(T)[sp].d(T)[sp].d(A)[sp].d(T)[sp].d(C)[sp].d(T)[sp].d(T)[sp].d(C)[sp].d(T)[sp].d(T)[sp].m(U)[sp].m(U)[sp].m(A)[sp].m(A)[sp].m(U)}$$$$” was run?
**A.** The TLR7 signal (NF-kB luciferase) (% of resiquimod alone) was 49.3.

**Q.** And the TLR8 potentiation (NF-kB luciferase) (fold of resiquimod alone) (CDKN2B-AS1 [2])?
**A.** The TLR8 potentiation (NF-kB luciferase) (fold of resiquimod alone) was 2.96.

**Q.** What does the source list for “RNA1{m(A)[sp].m(A)[sp].m(A)[sp].m(G)[sp].m(C)[sp].d(A)[sp].d(G)[sp].d(T)[sp].d(C)[sp].d(T)[sp].d(C)[sp].d(C)[sp].d(A)[sp].d(T)[sp].d(G)[sp].m(U)[sp].m(C)[sp].m(C)[sp].m(C)[sp].m(A)}$$$$”?
**A.** TLR7 signal (NF-kB luciferase) (% of resiquimod alone) (CDKN2B-AS1 [1]): 27.2; TLR8 potentiation (NF-kB luciferase) (fold of resiquimod alone) (CDKN2B-AS1 [2]): 1.9

**Q.** For “RNA1{m(A)[sp].m(A)[sp].m(G)[sp].m(A)[sp].m(U)[sp].d(T)[sp].d(A)[sp].d(T)[sp].d(C)[sp].d(T)[sp].d(T)[sp].d(C)[sp].d(T)[sp].d(T)[sp].d(T)[sp].m(U)[sp].m(A)[sp].m(A)[sp].m(U)[sp].m(U)}$$$$”, which TLR7 signal (NF-kB luciferase) (% of resiquimod alone) (CDKN2B-AS1 [1]) is on record?
**A.** The TLR7 signal (NF-kB luciferase) (% of resiquimod alone) was 42.1.

**Q.** What about the TLR8 potentiation (NF-kB luciferase) (fold of resiquimod alone) (CDKN2B-AS1 [2]) of the same substance?
**A.** Its TLR8 potentiation (NF-kB luciferase) (fold of resiquimod alone) is 2.91.

**Q.** For “RNA1{m(A)[sp].m(A)[sp].m(G)[sp].m(C)[sp].m(A)[sp].d(G)[sp].d(T)[sp].d(C)[sp].d(T)[sp].d(C)[sp].d(C)[sp].d(A)[sp].d(T)[sp].d(G)[sp].d(T)[sp].m(C)[sp].m(C)[sp].m(C)[sp].m(A)[sp].m(G)}$$$$”, which TLR7 signal (NF-kB luciferase) (% of resiquimod alone) (CDKN2B-AS1 [1]) is on record?
**A.** The TLR7 signal (NF-kB luciferase) (% of resiquimod alone) was 35.7.

**Q.** What about the TLR8 potentiation (NF-kB luciferase) (fold of resiquimod alone) (CDKN2B-AS1 [2]) of the same substance?
**A.** Its TLR8 potentiation (NF-kB luciferase) (fold of resiquimod alone) is 1.79.

**Q.** “RNA1{m(A)[sp].m(A)[sp].m(G)[sp].m(G)[sp].m(U)[sp].d(G)[sp].d(G)[sp].d(C)[sp].d(C)[sp].d(A)[sp].d(C)[sp].d(A)[sp].d(G)[sp].d(G)[sp].d(C)[sp].m(A)[sp].m(A)[sp].m(C)[sp].m(G)[sp].m(U)}$$$$” was tested. Which TLR7 signal (NF-kB luciferase) (% of resiquimod alone) (CDKN2B-AS1 [1]) did it give?
**A.** The TLR7 signal (NF-kB luciferase) (% of resiquimod alone) was 57.9.

**Q.** And the TLR8 potentiation (NF-kB luciferase) (fold of resiquimod alone) (CDKN2B-AS1 [2])?
**A.** Its TLR8 potentiation (NF-kB luciferase) (fold of resiquimod alone) is 0.58.

**Q.** “RNA1{m(A)[sp].m(A)[sp].m(U)[sp].m(A)[sp].m(U)[sp].d(C)[sp].d(T)[sp].d(G)[sp].d(C)[sp].d(T)[sp].d(G)[sp].d(C)[sp].d(C)[sp].d(C)[sp].d(A)[sp].m(C)[sp].m(C)[sp].m(U)[sp].m(U)[sp].m(C)}$$$$” was tested. Which TLR7 signal (NF-kB luciferase) (% of resiquimod alone) (CDKN2B-AS1 [1]) did it give?
**A.** Its TLR7 signal (NF-kB luciferase) (% of resiquimod alone) is 43.7.

**Q.** What about the TLR8 potentiation (NF-kB luciferase) (fold of resiquimod alone) (CDKN2B-AS1 [2]) of the same substance?
**A.** The TLR8 potentiation (NF-kB luciferase) (fold of resiquimod alone) was 1.79.

**Q.** For “RNA1{m(A)[sp].m(A)[sp].m(U)[sp].m(U)[sp].m(U)[sp].d(A)[sp].d(A)[sp].d(A)[sp].d(G)[sp].d(C)[sp].d(A)[sp].d(T)[sp].d(G)[sp].d(A)[sp].d(A)[sp].m(U)[sp].m(A)[sp].m(U)[sp].m(U)[sp].m(A)}$$$$”, which TLR7 signal (NF-kB luciferase) (% of resiquimod alone) (CDKN2B-AS1 [1]) is on record?
**A.** Its TLR7 signal (NF-kB luciferase) (% of resiquimod alone) is 46.8.

**Q.** What about the TLR8 potentiation (NF-kB luciferase) (fold of resiquimod alone) (CDKN2B-AS1 [2]) of the same substance?
**A.** Its TLR8 potentiation (NF-kB luciferase) (fold of resiquimod alone) is 3.29.

**Q.** Which results are given for “RNA1{m(A)[sp].m(G)[sp].m(A)[sp].m(A)[sp].m(A)[sp].d(G)[sp].d(A)[sp].d(A)[sp].d(G)[sp].d(C)[sp].d(A)[sp].d(A)[sp].d(A)[sp].d(G)[sp].d(A)[sp].m(U)[sp].m(U)[sp].m(C)[sp].m(A)[sp].m(A)}$$$$”?
**A.** TLR7 signal (NF-kB luciferase) (% of resiquimod alone) (CDKN2B-AS1 [1]): 43; TLR8 potentiation (NF-kB luciferase) (fold of resiquimod alone) (CDKN2B-AS1 [2]): 1.96

**Q.** For “RNA1{m(A)[sp].m(G)[sp].m(A)[sp].m(U)[sp].m(U)[sp].d(A)[sp].d(T)[sp].d(C)[sp].d(T)[sp].d(T)[sp].d(C)[sp].d(T)[sp].d(T)[sp].d(T)[sp].d(T)[sp].m(A)[sp].m(A)[sp].m(U)[sp].m(U)[sp].m(U)}$$$$”, which TLR7 signal (NF-kB luciferase) (% of resiquimod alone) (CDKN2B-AS1 [1]) is on record?
**A.** The TLR7 signal (NF-kB luciferase) (% of resiquimod alone) was 37.1.

**Q.** What about the TLR8 potentiation (NF-kB luciferase) (fold of resiquimod alone) (CDKN2B-AS1 [2]) of the same substance?
**A.** The TLR8 potentiation (NF-kB luciferase) (fold of resiquimod alone) was 3.02.

**Q.** With “RNA1{m(A)[sp].m(G)[sp].m(C)[sp].m(A)[sp].m(G)[sp].d(T)[sp].d(C)[sp].d(T)[sp].d(C)[sp].d(C)[sp].d(A)[sp].d(T)[sp].d(G)[sp].d(T)[sp].d(C)[sp].m(C)[sp].m(C)[sp].m(A)[sp].m(G)[sp].m(G)}$$$$” as the substance, how does the TLR7 signal (NF-kB luciferase) (% of resiquimod alone) (CDKN2B-AS1 [1]) read?
**A.** The TLR7 signal (NF-kB luciferase) (% of resiquimod alone) was 25.5.

**Q.** And the TLR8 potentiation (NF-kB luciferase) (fold of resiquimod alone) (CDKN2B-AS1 [2])?
**A.** Its TLR8 potentiation (NF-kB luciferase) (fold of resiquimod alone) is 2.81.

**Q.** With “RNA1{m(A)[sp].m(G)[sp].m(G)[sp].m(A)[sp].m(U)[sp].d(T)[sp].d(A)[sp].d(A)[sp].d(A)[sp].d(A)[sp].d(C)[sp].d(A)[sp].d(G)[sp].d(A)[sp].d(T)[sp].m(U)[sp].m(A)[sp].m(A)[sp].m(U)[sp].m(A)}$$$$” as the substance, how does the TLR7 signal (NF-kB luciferase) (% of resiquimod alone) (CDKN2B-AS1 [1]) read?
**A.** Its TLR7 signal (NF-kB luciferase) (% of resiquimod alone) is 36.3.

**Q.** What about the TLR8 potentiation (NF-kB luciferase) (fold of resiquimod alone) (CDKN2B-AS1 [2]) of the same substance?
**A.** The TLR8 potentiation (NF-kB luciferase) (fold of resiquimod alone) was 2.19.
